Source: US11058680B2, “Combinations of opioid/TLR4 antagonists and acetaminophen for use in the treatment of emotional pain and insomnia” (Allodynic Threapeutics, LLC, priority 2016, dated 2021)

System: migraine attacks
Experiment: Naltrexone/acetaminophen open-label pilot study, acute treatment of migraine: headache pain (4-point scale; relief score ≤1, pain-free score = 0), associated symptoms, additional meds
Type: in vivo, human
Protocol: Sixteen unique patients were enrolled in an open phase pilot study for the acute treatment of migraine attacks, insomnia, and emotional pain. Of the sixteen patients, eleven were evaluated for one migraine attack, one for two attacks, two for four attacks, one for six attacks, and one for fourteen attacks. A total of forty-one […] treatments were evaluated. Patients received a single dose of one of the following treatment options:
The majority of the patients remained in the clinic for observation for 2 hours after dosing. They completed headache diary assessments immediately before and after dosing at time points: 7, 15, and 30 minutes; and 1, 1.5, 2, 3, 6, 12, 24, and 48 hours. Headache pain was assessed on a 4-point scale (0=none; 1=mild; 2=moderate; 3=severe). The assessment of photophobia, phonophobia, nausea, and neck/shoulder pain was assessed as present or absent. The assessment of emotional pain was recorded on a 4-point scale (0=none, 1=mild, 2=moderate, 3=severe). The assessment of difficulty sleeping or falling asleep (insomnia) was assessed on a 4-point scale (0=none, 1=mild, 2=moderate, 3=severe) at baseline, for the night before treatment and for the following nights at 24, and 48 hours. Patients recorded side effects severity at each time point. Patients recorded the time of the first rescue medication dose and all additional headache medications used within 48 hours. Patients were required to stay awake to record their assessments in the first 2 hours, sleeping was permitted thereafter. While asleep, assessments were completed according to patients' best estimation. For data analysis, it was assumed that a migraine attack is a unique patient. Patients were asked to specify (yes or no answer) to whether they experienced emotional pain symptoms such as: hurt feelings, sadness, fear, or anger. Patients who replied positively to having emotional pain were asked to specify the cause into one of the following options: relationship, work/school, money/debt, health, or loss/grief.

[1] = 7 min, NTX/APAP 2.25 mg/325 mg, NTX 2.25 mg
[2] = 7 min, NTX/APAP 3.25 mg/325 mg, NTX 3.25 mg
[3] = 7 min, NTX/APAP 5 mg/325 mg, NTX 5 mg
[4] = 7 min, naltrexone/acetaminophen 2.25 mg/325 mg (N=15), naltrexone 2.25 mg (N=3)
[5] = 15 min, NTX/APAP 2.25 mg/325 mg, NTX 2.25 mg
[6] = 15 min, NTX/APAP 3.25 mg/325 mg, NTX 3.25 mg
[7] = 15 min, NTX/APAP 5 mg/325 mg, NTX 5 mg
[8] = 15 min, NTX/APAP […]325 mg, NTX 1.5 mg
[9] = 15 min, naltrexone/acetaminophen 2.25 mg/325 mg (N=21), naltrexone 2.25 mg (N=9)
[10] = 30 min, NTX/APAP 2.25 mg/325 mg, NTX 2.25 mg
[11] = 30 min, NTX/APAP 3.25 mg/325 mg, NTX 3.25 mg
[12] = 30 min, NTX/APAP 5 mg/325 mg, NTX 5 mg
[13] = 30 min, NTX/APAP […]325 mg, NTX 1.5 mg
[14] = 30 min, naltrexone/acetaminophen 2.25 mg/325 mg (N=21), naltrexone 2.25 mg (N=9)
[15] = 1 h, NTX/APAP 2.25 mg/325 mg, NTX 2.25 mg
[16] = 1 h, NTX/APAP 3.25 mg/325 mg, NTX 3.25 mg

**Q.** Which results are given for `O=C1CC[C@@]2(O)[C@H]3Cc4ccc(O)c5c4[C@@]2(CCN3CC2CC2)[C@H]1O5` [naltrexone]?
**A.** Additional meds taken [1]: 0 (0); Headache pain-free [1]: 0 (0) n (%); Headache pain-relief [1]: 0 (0) n (%); Most bothersome symptom free [1]: 0 (0) n (%); Nausea-free [1]: 0 (0) n (%); Neck/shoulder pain-free [1]: 2 (67) n (%); Phonophobia-free [1]: 2 (67) n (%); Photophobia-free [1]: 0 (0) n (%); Additional meds taken [2]: 0; Headache pain-free [2]: 0 n (%); Headache pain-relief [2]: 0 n (%); Most bothersome symptom free [2]: 0 n (%); Nausea-free [2]: 2 n (%); Neck/shoulder pain-free [2]: 0 n (%); Phonophobia-free [2]: 0 n (%); Photophobia-free [2]: 1 n (%); Additional meds taken [3]: 0; Headache pain-free [3]: 0 n (%); Headache pain-relief [3]: 0 n (%); Most bothersome symptom free [3]: 0 n (%); Nausea-free [3]: 0 n (%); Neck/shoulder pain-free [3]: 0 n (%); Phonophobia-free [3]: 0 n (%); Photophobia-free [3]: 0 n (%); Additional meds taken (7 min, all doses combined): 0 (0); Headache pain-free (7 min, all doses combined): 0 (0) n (%); Headache pain-relief (7 min, all doses combined): 0 (0) n (%); Most bothersome symptom free (7 min, all doses combined): 0 (0) n (%); Nausea-free (7 min, all doses combined): 2 (33) n (%); Neck/shoulder pain-free (7 min, all doses combined): 2 (33) n (%); Phonophobia-free (7 min, all doses combined): 2 (33) n (%); Photophobia-free (7 min, all doses combined): 1 (16) n (%); Headache pain-free [4]: 0%; Most bothersome symptom-free [4]: 0%; Additional meds taken [5]: 0 (0); Headache pain-free [5]: 0 (0) n (%); Headache pain-relief [5]: 4 (44) n (%); Most bothersome symptom free [5]: 1 (11) n (%); Nausea-free [5]: 3 (33) n (%); Neck/shoulder pain-free [5]: 4 (44) n (%); Phonophobia-free [5]: 4 (44) n (%); Photophobia-free [5]: 3 (33) n (%); Additional meds taken [6]: 0; Headache pain-free [6]: 0 n (%); Headache pain-relief [6]: 2 n (%); Most bothersome symptom free [6]: 0 n (%); Nausea-free [6]: 3 n (%); Neck/shoulder pain-free [6]: 0 n (%); Phonophobia-free [6]: 0 n (%); Photophobia-free [6]: 1 n (%); Additional meds taken [7]: 1; Headache pain-free [7]: 0 n (%); Headache pain-relief [7]: 0 n (%); Most bothersome symptom free [7]: 0 n (%); Nausea-free [7]: 0 n (%); Neck/shoulder pain-free [7]: 0 n (%); Phonophobia-free [7]: 0 n (%); Photophobia-free [7]: 0 n (%); Additional meds taken [8]: 0; Headache pain-free [8]: 0 n (%); Headache pain-relief [8]: 1 n (%); Most bothersome symptom free [8]: 0 n (%); Nausea-free [8]: 2 n (%); Neck/shoulder pain-free [8]: 1 n (%); Phonophobia-free [8]: 0 n (%); Photophobia-free [8]: 0 n (%); Additional meds taken (15 min, all doses combined): 0 (0); Headache pain-free (15 min, all doses combined): 0 (0) n (%); Headache pain-relief (15 min, all doses combined): 7 (44) n (%); Most bothersome symptom free (15 min, all doses combined): 1 (6) n (%); Nausea-free (15 min, all doses combined): 8 (50) n (%); Neck/shoulder pain-free (15 min, all doses combined): 5 (31) n (%); Phonophobia-free (15 min, all doses combined): 4 (25) n (%); Photophobia-free (15 min, all doses combined): 4 (25) n (%); Headache pain-free [9]: 0%; Headache pain-relief [9]: 44%; Most bothersome symptom-free [9]: 11%; Additional meds taken [10]: 0; Headache pain-free [10]: 2 (22) n (%); Headache pain-relief [10]: 7 (78) n (%); Most bothersome symptom free [10]: 6 (67) n (%); Nausea-free [10]: 8 (88) n (%); Neck/shoulder pain-free [10]: 6 (67) n (%); Phonophobia-free [10]: 7 (78) n (%); Photophobia-free [10]: 5 (56) n (%); Additional meds taken [11]: 0 (0); Headache pain-free [11]: 0 (0) n (%); Headache pain-relief [11]: 2 (66) n (%); Most bothersome symptom free [11]: 0 (0) n (%); Nausea-free [11]: 2 (66) n (%); Neck/shoulder pain-free [11]: 0 (0) n (%); Phonophobia-free [11]: 0 (0) n (%); Photophobia-free [11]: 1 (33) n (%); Additional meds taken [12]: 0 (0); Headache pain-free [12]: 0 (0) n (%); Headache pain-relief [12]: 0 (0) n (%); Most bothersome symptom free [12]: 0 (0) n (%); Nausea-free [12]: 0 (0) n (%); Neck/shoulder pain-free [12]: 1 (100) n (%); Phonophobia-free [12]: 1 (100) n (%); Photophobia-free [12]: 1 (100) n (%); Additional meds taken [13]: 0 (0); Headache pain-free [13]: 0 (0) n (%); Headache pain-relief [13]: 2 (66) n (%); Most bothersome symptom free [13]: 0 (0) n (%); Nausea-free [13]: 2 (66) n (%); Neck/shoulder pain-free [13]: 1 (33) n (%); Phonophobia-free [13]: 0 (0) n (%); Photophobia-free [13]: 0 (0) n (%); Additional meds taken (30 min, all doses combined): 0 (0); Headache pain-free (30 min, all doses combined): 2 (13) n (%); Headache pain-relief (30 min, all doses combined): 10 (63) n (%); Most bothersome symptom free (30 min, all doses combined): 6 (38) n (%); Nausea-free (30 min, all doses combined): 12 (75) n (%); Neck/shoulder pain-free (30 min, all doses combined): 8 (50) n (%); Phonophobia-free (30 min, all doses combined): 8 (50) n (%); Photophobia-free (30 min, all doses combined): 7 (48) n (%); Headache pain-free (30 min, naltrexone 1.5 mg (N=3)): 0%; Headache pain-free [14]: 22%; Headache pain-relief [14]: 78%; Most bothersome symptom-free [14]: 67%; Headache pain-free (30 min, naltrexone/acetaminophen 3.25 mg/325 mg (N=3), naltrexone 3.25 mg (N=3)): 0%; Additional meds taken [15]: 0 (0); Headache pain-free [15]: 4 (44) n (%); Headache pain-relief [15]: 8 (88) n (%); Most bothersome symptom free [15]: 7 (77) n (%); Nausea-free [15]: 9 (100) n (%); Neck/shoulder pain-free [15]: 6 (66) n (%); Phonophobia-free [15]: 8 (88) n (%); Photophobia-free [15]: 6 (66) n (%); Additional meds taken [16]: 0; Headache pain-free [16]: 3 (100) n (%)
